In ChEMBL document CHEMBL1201862, “PubChem BioAssay data set” (2004):
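1) Cells in 96-well plates. 2) Compound, 48 h, 5 concentrations. 3) Linear interpolation between surrounding doses. 4) Unreached endpoint = highest concentration. GI50 marks 50% less growth.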 Activity calls are given as the source filed them. No stated cut-off is given here; in the data, active = GI50 up to about 1.1 µM and inactive = higher.

Key:
Experiment in all cases: inhibition of tumour cell growth, NCI panel, 48 h
EKVX = system: EKVX
OVCAR-4 = system: OVCAR-4
SK-MEL-5 = system: SK-MEL-5
SK-MEL-28 = system: SK-MEL-28
COLO 205 = system: COLO 205
SW-620 = system: SW-620
SK-MEL-2 = system: SK-MEL-2
CCRF-CEM = system: CCRF-CEM
SF-539 = system: SF-539
OVCAR-8 = system: OVCAR-8
HCT-116 = system: HCT-116
LXFL 529 = system: LXFL 529
RXF 631 = system: RXF 631
DLD-1 = system: DLD-1
SF-268 = system: SF-268
NCI-H226 = system: NCI-H226
U-251 = system: U-251
Malme-3M = system: Malme-3M
SK-OV-3 = system: SK-OV-3
OVCAR-3 = system: OVCAR-3
UACC-62 = system: UACC-62
OVCAR-5 = system: OVCAR-5
HCT-15 = system: HCT-15
A549 = system: A549
786-0 = system: 786-0
NCI-H460 = system: NCI-H460
NCI-H23 = system: NCI-H23
XF498 = system: XF498
KM12 = system: KM12
DMS-114 = system: DMS-114
SN12C = system: SN12C
TK-10 = system: TK-10
ACHN = system: ACHN
SNB-78 = system: SNB-78
SNB-75 = system: SNB-75
A498 = system: A498
HOP-62 = system: HOP-62
M19-MEL = system: M19-MEL
HOP-92 = system: HOP-92
SF-295 = system: SF-295
KM-20L2 = system: KM-20L2
RXF 393 = system: RXF 393
HOP-18 = system: HOP-18
UACC-257 = system: UACC-257
SNB-19 = system: SNB-19
IGROV-1 = system: IGROV-1
UO-31 = system: UO-31
HL-60 = system: HL-60
M14 = system: M14
NCI-H522 = system: NCI-H522
HCC 2998 = system: HCC 2998
HT-29 = system: HT-29
LOX IMVI = system: LOX IMVI

With CCCCCCCCCCCCCP(=O)(NCC(N)=O)OCC (stereo not drawn) the GI50 (EKVX) was 19.2 µM (inactive), the GI50 (OVCAR-4) was 16.7 µM (inactive) and the GI50 (SK-MEL-5) was 18.5 µM (inactive). The GI50 (SK-MEL-28) was 18.2 µM (inactive), the GI50 (COLO 205) was 17.2 µM (inactive) and the GI50 (SW-620) was 19.9 µM (inactive). The GI50 (SK-MEL-2) was 16.3 µM (inactive), the GI50 (CCRF-CEM) was 22.6 µM (inactive) and the GI50 (SF-539) was 17.4 µM (inactive). The GI50 (OVCAR-8) was 21.4 µM (inactive), the GI50 (HCT-116) was 14.8 µM (inactive) and the GI50 (LXFL 529) was 16.8 µM (inactive). The GI50 (RXF 631) was 18.9 µM (inactive), the GI50 (DLD-1) was 17.1 µM (inactive) and the GI50 (SF-268) was 19.1 µM (inactive). For the same molecule, the GI50 (NCI-H226) was 17.5 µM (inactive), the GI50 (U-251) was 17.3 µM (inactive) and the GI50 (Malme-3M) was 17.7 µM (inactive). For the same molecule, the GI50 (SK-OV-3) was 21.3 µM (inactive), the GI50 (OVCAR-3) was 15.3 µM (inactive) and the GI50 (UACC-62) was 16.3 µM (inactive). The GI50 (OVCAR-5) was 19.5 µM (inactive), the GI50 (HCT-15) was 17.8 µM and the GI50 (A549) was 20.3 µM (inactive). The GI50 (786-0) was 15.4 µM (inactive), the GI50 (NCI-H460) was 20.6 µM (inactive) and the GI50 (NCI-H23) was 24.3 µM (inactive). For the same molecule, the GI50 (XF498) was 19.1 µM (inactive), the GI50 (KM12) was 18.4 µM (inactive) and the GI50 (DMS-114) was 15.2 µM (inactive). For the same molecule, the GI50 (SN12C) was 18.3 µM (inactive), the GI50 (TK-10) was 18.7 µM (inactive) and the GI50 (ACHN) was 21.8 µM (inactive). For the same molecule, the GI50 (SNB-78) was 20 µM (inactive), the GI50 (SNB-75) was 5.31 µM (inactive) and the GI50 (A498) was 35.6 µM (inactive). The GI50 (HOP-62) was 17.3 µM (inactive), the GI50 (M19-MEL) was 19.7 µM (inactive) and the GI50 (HOP-92) was 17 µM (inactive). The GI50 (SF-295) was 17.3 µM (inactive), the GI50 (KM-20L2) was 17.4 µM (inactive) and the GI50 (RXF 393) was 22.5 µM (inactive). For the same molecule, the GI50 (HOP-18) was 2.38 µM (inactive), the GI50 (UACC-257) was 18.9 µM (inactive) and the GI50 (SNB-19) was 18.7 µM (inactive). The GI50 (IGROV-1) was 18.5 µM (inactive), the GI50 (UO-31) was 13.6 µM (inactive) and the GI50 (HL-60) was 13.8 µM (inactive). The GI50 (M14) was 16.9 µM (inactive), the GI50 (NCI-H522) was > 10 µM (inactive) and the GI50 (HCC 2998) was 20.2 µM (inactive). For the same molecule, the GI50 (HT-29) was 17.2 µM (inactive) and the GI50 (LOX IMVI) was > 10 µM (inactive).
